According to patent publication US20170007615A1, “Antibacterial Compounds” (priority 2014, published 2017):
Values after ≈ are worked out from the molar mass of the structure shown.

Columns and labels:
[1] = system: N. gonorrheae (ATCC 49226); experiment: Antibacterial activity (MIC), Gram-negative type strain; assay type: cell-based, Neisseria gonorrhoeae; settings: Table 13; for MIC: Neisseria gonorrhoeae, ATCC49226
[2] = system: E. coli (ATCC 25922); experiment: microbe, parasite or virus in culture; settings: Escherichia coli, ATCC25922, read-out: MIC Compound alone, Table 1
[3] = system: E. coli (ATCC 25922); settings: Table 1; (b) No effect
[4] = system: H. influenzae (ATCC 49247); experiment: Antibacterial activity (MIC), Gram-negative type strain; assay type: cell-based, Haemophilus influenzae; settings: Table 13; for MIC: Haemophilus influenzae, ATCC49247
[5] = system: S. aureus (ATCC 29213); experiment: Antibacterial activity (MIC), Gram-positive type strain; assay type: cell-based, Staphylococcus aureus; settings: Table 13; for MIC: Staphylococcus aureus, ATCC29213
[6] = system: E. faecalis (ATCC 29212); experiment: as above; assay type: cell-based, Enteroccocus faecalis; settings: Table 13; for MIC: Enterococcus faecalis, ATCC29212

Compound	MIC [1] [µg/mL]	MIC [2] [µg/mL]	MIC of Compound (μg/ml) in the presence of PMBN (128 μg/ml) [3] [µg/mL]	MIC [4] [µg/mL]	MIC [5] [µg/mL]	MIC [6] [µg/mL]	MIC vs. N. gonorrheae (ATCC 49226) [1]	MIC vs. H. influenzae (ATCC 49247) [4] [µg/mL]	MIC vs. S. aureus (ATCC 29213) [5] [µg/mL]	MIC vs. E. faecalis (ATCC 29212) [6]
CCNC(=O)Nc1nc2cc(-c3cnc(NS(=O)(=O)c4ccccc4C(=O)O)nc3)cc(-c3ccccn3)c2s1 [Compound A-10, 2-[[5-[2-(Ethylcarbamoylamino)-7-(2-pyridyl)-1,3-benzothiazol-5-yl]pyrimidin-2-yl]sulfamoyl]benzoic acid]	0.25 (≈ 0.434 µM)	> 64	4	4 (≈ 6.95 µM)	2 (≈ 3.47 µM)	0.5 (≈ 0.869 µM)	–	–	–	–
CCNC(=O)Nc1nc2cc(-c3cnc(NS(=O)(=O)C[C@@H](N)Cc4ccccc4)nc3)cc(-c3ccc(C)cn3)c2s1 [Compound A-46, (S)-2-amino-N-(5-(2-(3-ethylureido)-7-(5-methylpyridin-2-yl)benzo[d]thiazol-5-yl)pyrimidin-2-yl)-3-phenylpropane-1-sulfonamide]	0.06 (≈ 0.0995 µM)	–	–	2 (≈ 3.32 µM)	1 (≈ 1.66 µM)	0.25 (≈ 0.415 µM)	–	–	–	–
CCNC(=O)Nc1nc2cc(-c3cnc(NS(=O)(=O)N4CC(OC)C4)nc3)cc(-c3ccccn3)c2s1 [Compound A-49, N-(5-(2-(3-ethylureido)-7-(pyridin-2-yl)benzo[d]thiazol-5-yl)pyrimidin-2-yl)-3-methoxyazetidine-1-sulfonamide]	0.25 (≈ 0.462 µM)	–	–	2 (≈ 3.7 µM)	1 (≈ 1.85 µM)	0.25 (≈ 0.462 µM)	–	–	–	–
CCNC(=O)Nc1nc2cc(-c3cnc(NS(=O)(=O)c4ccccc4)nc3)cc(-c3ccc(C)cn3)c2s1 [Compound A-51, N-(5-(2-(3-ethylureido)-7-(5-methylpyridin-2-yl)benzo[d]thiazol-5-yl)pyrimidin-2-yl)benzenesulfonamide]	≤ 0.008	–	–	0.015 (≈ 0.0275 µM)	0.015 (≈ 0.0275 µM)	0.008 (≈ 0.0147 µM)	–	–	–	–
CCNC(=O)Nc1nc2cc(-c3cnc(NS(=O)(=O)CCN4CCOCC4)nc3)cc(-c3ccc(C)cn3)c2s1 [Compound A-52, N-(5-(2-(3-ethylureido)-7-(5-methylpyridin-2-yl)benzo[d]thiazol-5-yl)pyrimidin-2-yl)-2-morpholinoethanesulfonamide]	0.03 (≈ 0.0515 µM)	–	–	0.12 (≈ 0.206 µM)	0.5 (≈ 0.858 µM)	0.12 (≈ 0.206 µM)	–	–	–	–
CCNC(=O)Nc1nc2cc(-c3cnc(NS(=O)(=O)N4CCC(O)C4)nc3)cc(-c3ccc(C)cn3)c2s1 (stereo not drawn) [Compound A-54, N-(5-(2-(3-ethylureido)-7-(5-methylpyridin-2-yl)benzo[d]thiazol-5-yl)pyrimidin-2-yl)-3-hydroxypyrrolidine-1-sulfonamide]	≤ 0.008	–	–	0.03 (≈ 0.0541 µM)	0.12 (≈ 0.216 µM)	≤ 0.008	–	–	–	–
CCNC(=O)Nc1nc2cc(-c3cnc(NS(=O)(=O)N4CC[C@@H](N5CCOCC5)C4)nc3)cc(-c3ccc(C)cn3)c2s1 [Compound A-56, (R)—N-(5-(2-(3-ethylureido)-7-(5-methylpyridin-2-yl)benzo[d]thiazol-5-yl)pyrimidin-2-yl)-3-morpholinopyrrolidine-1-sulfonamide]	0.06 (≈ 0.0962 µM)	–	–	0.12 (≈ 0.192 µM)	0.06 (≈ 0.0962 µM)	0.015 (≈ 0.024 µM)	–	–	–	–
CCNC(=O)Nc1nc2cc(-c3cnc(NS(=O)(=O)N4CC[C@@H](N(C)C)C4)nc3)cc(-c3ccc(C)cn3)c2s1 [Compound A-57, (R)-3-(dimethylamino)-N-(5-(2-(3-ethylureido)-7-(5-methylpyridin-2-yl)benzo[d]thiazol-5-yl)pyrimidin-2-yl)pyrrolidine-1-sulfonamide]	0.12 (≈ 0.206 µM)	–	–	0.5 (≈ 0.86 µM)	0.25 (≈ 0.43 µM)	0.03 (≈ 0.0516 µM)	–	–	–	–
CCNC(=O)Nc1nc2cc(-c3cnc(NS(=O)(=O)C4CCN(C(C)=O)C4)nc3)cc(-c3ccc(C)cn3)c2s1 (stereo not drawn) [Compound A-58, 1-acetyl-N-(5-(2-(3-ethylureido)-7-(5-methylpyridin-2-yl)benzo[d]thiazol-5-yl)pyrimidin-2-yl)pyrrolidine-3-sulfonamide]	0.03 (≈ 0.0517 µM)	–	–	1 (≈ 1.72 µM)	2 (≈ 3.44 µM)	0.25 (≈ 0.431 µM)	–	–	–	–
CCNC(=O)Nc1nc2cc(-c3cnc(NS(=O)(=O)N4CC[C@@H](O)C4)nc3)cc(-c3ccc(C)cn3)c2s1 [Compound A-59, (R)—N-(5-(2-(3-ethylureido)-7-(5-methylpyridin-2-yl)benzo[d]thiazol-5-yl)pyrimidin-2-yl)-3-hydroxypyrrolidine-1-sulfonamide]	0.015 (≈ 0.027 µM)	–	–	0.03 (≈ 0.0541 µM)	0.12 (≈ 0.216 µM)	0.015 (≈ 0.027 µM)	–	–	–	–
CCNC(=O)Nc1nc2cc(-c3cnc(NS(=O)(=O)N4CC[C@H](O)C4)nc3)cc(-c3ccc(C)cn3)c2s1 [Compound A-60, (S)—N-(5-(2-(3-ethylureido)-7-(5-methylpyridin-2-yl)benzo[d]thiazol-5-yl)pyrimidin-2-yl)-3-hydroxypyrrolidine-1-sulfonamide]	≤ 0.008	–	–	0.03 (≈ 0.0541 µM)	0.12 (≈ 0.216 µM)	0.06 (≈ 0.108 µM)	–	–	–	–
CCNC(=O)Nc1nc2cc(-c3cnc(NS(=O)(=O)C(C)(C)C)nc3)c(F)cc2s1 [Compound A-61, N-(5-(2-(3-ethylureido)-6-fluorobenzo[d]thiazol-5-yl)pyrimidin-2-yl)-2-methylpropane-2-sulfonamide]	0.25 (≈ 0.552 µM)	–	–	0.12 (≈ 0.265 µM)	0.06 (≈ 0.133 µM)	0.06 (≈ 0.133 µM)	–	–	–	–
N-(5-(2-(3-ethylureido)-7-(5-methylpyridin-2-yl)benzo[d]thiazol-5-yl)pyrimidin-2-yl)-N-methylmethanesulfonamide [Compound A-29]	–	–	–	–	–	–	0.25 µg/mL	2	0.25	0.06 µg/mL
N-(5-(2-(3-ethylureido)-7-(pyridin-2-yl)benzo[d]thiazol-5-yl)pyrimidin-2-yl)morpholine-4-sulfonamide [Compound A-43]	–	–	–	–	–	–	<=0.008 μg/ml	0.03	0.12	<=0.008 μg/ml

Second part, led by results:

MIC [1] [µg/mL]	MIC [2] [µg/mL]	MIC of Compound (μg/ml) in the presence of PMBN (128 μg/ml) [3] [µg/mL]	MIC [4] [µg/mL]	MIC [5] [µg/mL]	MIC [6] [µg/mL]	Compound	MIC vs. N. gonorrheae (ATCC 49226) [1]	MIC vs. H. influenzae (ATCC 49247) [4] [µg/mL]	MIC vs. S. aureus (ATCC 29213) [5] [µg/mL]	MIC vs. E. faecalis (ATCC 29212) [6]
0.015 (≈ 0.0278 µM)	2 (≈ 3.71 µM)	0.015	0.06 (≈ 0.111 µM)	0.004 (≈ 0.00743 µM)	≤ 0.008	CCNC(=O)Nc1nc2cc(-c3cnc(NS(=O)(=O)N4CCCC4)nc3)cc(-c3ccc(C)cn3)c2s1 [Compound A-11, 1-Ethyl-3-[7-(5-methyl-2-pyridyl)-5-[2-(pyrrolidin-1-ylsulfonylamino)pyrimidin-5-yl]-1,3-benzothiazol-2-yl]urea]	–	–	–	–
≤ 0.008	2 (≈ 3.91 µM)	0.008	0.015 (≈ 0.0293 µM)	≤ 0.002	≤ 0.008	CCCS(=O)(=O)Nc1ncc(-c2cc(-c3ccc(C)cn3)c3sc(NC(=O)NCC)nc3c2)cn1 [Compound A-12, 1-Ethyl-3-[7-(5-methyl-2-pyridyl)-5-[2-(propylsulfonylamino)pyrimidin-5-yl]-1,3-benzothiazol-2-yl]urea]	–	–	–	–
0.015 (≈ 0.0277 µM)	4 (≈ 7.38 µM)	0.03	0.015 (≈ 0.0277 µM)	0.03 (≈ 0.0554 µM)	≤ 0.008	CCNC(=O)Nc1nc2cc(-c3cnc(NS(=O)(=O)C(C)(C)CO)nc3)cc(-c3ccc(C)cn3)c2s1 [Compound A-14, 1-Ethyl-3-[5-[2-[(2-hydroxy-1,1-dimethyl-ethyl)sulfonylamino]pyrimidin-5-yl]-7-(5-methyl-2-pyridyl)-1,3-benzothiazol-2-yl]urea]	–	–	–	–
≤ 0.008	4 (≈ 7.37 µM)	0.03	0.03 (≈ 0.0553 µM)	0.12 (≈ 0.221 µM)	0.015 (≈ 0.0276 µM)	CCNC(=O)Nc1nc2cc(-c3cnc(NS(=O)(=O)N(C)CCO)nc3)cc(-c3ccc(C)cn3)c2s1 [Compound A-15, 1-Ethyl-3-[5-[2-[[2-hydroxyethyl(methyl)sulfamoyl]amino]pyrimidin-5-yl]-7-(5-methyl-2-pyridyl)-1,3-benzothiazol-2-yl]urea]	–	–	–	–
≤ 0.008	–	–	≤ 0.008	0.015 (≈ 0.0301 µM)	≤ 0.008	CCNC(=O)Nc1nc2cc(-c3cnc(NS(=O)(=O)CC)nc3)cc(-c3ccc(C)cn3)c2s1 [Compound A-47, N-(5-(2-(3-ethylureido)-7-(5-methylpyridin-2-yl)benzo[d]thiazol-5-yl)pyrimidin-2-yl)ethanesulfonamide]	–	–	–	–
≤ 0.008	–	–	0.03 (≈ 0.0586 µM)	0.015 (≈ 0.0293 µM)	≤ 0.008	CCNC(=O)Nc1nc2cc(-c3cnc(NS(=O)(=O)C(C)C)nc3)cc(-c3ccc(C)cn3)c2s1 [Compound A-48, N-(5-(2-(3-ethylureido)-7-(5-methylpyridin-2-yl)benzo[d]thiazol-5-yl)pyrimidin-2-yl)propane-2-sulfonamide]	–	–	–	–
0.25 (≈ 0.451 µM)	–	–	4 (≈ 7.21 µM)	0.5 (≈ 0.901 µM)	0.03 (≈ 0.0541 µM)	CCNC(=O)Nc1nc2cc(-c3cnc(NS(=O)(=O)N4CC(OC)C4)nc3)cc(-c3ccc(C)cn3)c2s1 [Compound A-50, N-(5-(2-(3-ethylureido)-7-(5-methylpyridin-2-yl)benzo[d]thiazol-5-yl)pyrimidin-2-yl)-3-methoxyazetidine-1-sulfonamide]	–	–	–	–
2 (≈ 3.71 µM)	–	–	> 64	> 64	0.5 (≈ 0.928 µM)	CCNC(=O)Nc1nc2cc(-c3cnc(NS(=O)(=O)C4CCNC4)nc3)cc(-c3ccc(C)cn3)c2s1 (stereo not drawn) [Compound A-53, N-(5-(2-(3-ethylureido)-7-(5-methylpyridin-2-yl)benzo[d]thiazol-5-yl)pyrimidin-2-yl)pyrrolidine-3-sulfonamide]	–	–	–	–
≤ 0.008	–	–	0.03 (≈ 0.0556 µM)	0.12 (≈ 0.222 µM)	≤ 0.008	CCNC(=O)Nc1nc2cc(-c3cnc(NS(=O)(=O)C4(CO)CC4)nc3)cc(-c3ccc(C)cn3)c2s1 [Compound A-55, N-(5-(2-(3-ethylureido)-7-(5-methylpyridin-2-yl)benzo[d]thiazol-5-yl)pyrimidin-2-yl)-1-(hydroxymethyl)cyclopropane-1-sulfonamide]	–	–	–	–
